Laboratory results: ChEMBL document CHEMBL4831528, “Discovery of Novel Pterostilbene-Based Derivatives as Potent and Orally Active NLRP3 Inflammasome Inhibitors with Inflammatory Activity for Colitis” (J Med Chem, 2021)
Active and inactive are the calls of the source. The calls are words filed in the database; no cut-off is given here.

Experiments:
[1] = biological target: NACHT, LRR and PYD domains-containing protein 3 (Mus musculus) (UniProt Q8R4B8); test: Inhibition of NLRP3 inflammasome activation in LPS-stimulated mouse bone marrow-derived macrophages assessed as reduction in cleaved IL-1beta secretion in supernatant at 2 uM preincubated for 30 mins followed by nigericin addition and measured after 0.5 hrs by Western blot analysis; type: tissue-based; conditions: Macrophage, time 60.0 min
Target sequence in this assay (Q8R4B8 whole entry, the tested form may be a part): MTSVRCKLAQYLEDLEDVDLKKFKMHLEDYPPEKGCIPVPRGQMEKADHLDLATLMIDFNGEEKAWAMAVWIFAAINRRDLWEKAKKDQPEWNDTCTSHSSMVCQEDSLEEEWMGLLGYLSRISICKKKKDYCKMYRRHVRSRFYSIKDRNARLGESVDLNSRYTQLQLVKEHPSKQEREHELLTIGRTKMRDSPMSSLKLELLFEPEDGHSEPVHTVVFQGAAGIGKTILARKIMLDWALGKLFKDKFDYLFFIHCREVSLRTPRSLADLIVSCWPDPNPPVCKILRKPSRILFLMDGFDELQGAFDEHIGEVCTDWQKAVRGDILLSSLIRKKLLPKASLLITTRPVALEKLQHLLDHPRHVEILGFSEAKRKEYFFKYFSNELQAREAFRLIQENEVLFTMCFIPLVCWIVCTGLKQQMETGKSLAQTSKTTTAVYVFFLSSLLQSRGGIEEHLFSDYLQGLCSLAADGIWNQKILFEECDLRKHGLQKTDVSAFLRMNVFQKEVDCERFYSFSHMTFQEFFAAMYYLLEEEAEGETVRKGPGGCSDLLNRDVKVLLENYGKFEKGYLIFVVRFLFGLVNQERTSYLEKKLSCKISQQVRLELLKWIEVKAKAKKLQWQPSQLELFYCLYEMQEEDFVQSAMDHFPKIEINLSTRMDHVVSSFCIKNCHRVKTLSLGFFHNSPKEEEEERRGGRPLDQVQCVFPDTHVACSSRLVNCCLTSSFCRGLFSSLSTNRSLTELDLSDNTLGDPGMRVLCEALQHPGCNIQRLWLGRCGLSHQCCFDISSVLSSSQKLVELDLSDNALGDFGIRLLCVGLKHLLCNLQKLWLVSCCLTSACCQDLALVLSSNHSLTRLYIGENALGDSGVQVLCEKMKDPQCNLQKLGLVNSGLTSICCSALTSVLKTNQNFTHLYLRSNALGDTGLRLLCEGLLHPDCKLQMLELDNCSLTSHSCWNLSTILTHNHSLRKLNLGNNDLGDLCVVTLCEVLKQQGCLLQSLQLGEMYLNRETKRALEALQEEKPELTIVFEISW

Mus musculus [2] = test: Protection against DSS-induced acute ulcerative colitis in C57BL/6 mouse assessed as reduction in decrease in goblet cells at 10 to 20 mg/kg, ig administered for 7 days by Hematoxylin and eosin staining based optical microscopy; type: functional, organism-based; conditions: dose 10-20 mg/kg, time 7.0 day
Mus musculus [3] = test: Downregulation of phosphorylated STAT3 expression in colon of C57BL/6 mouse model of DSS-induced ulcerative colitis at 10 to 20 mg/kg, ig administered for 7 days by Western blot analysis; type: functional, organism-based; conditions: dose 10-20 mg/kg, time 7.0 day
[4] = AUC (0 to infinity) in mouse at 2 mg/kg, iv measured after 0.08 to 24 hrs by LC-MS/MS analysis; type: ADME, organism-based; set-up: route intravenous, time upper 24 hrs, dose 2 mg/kg, time lower 0.08 hrs; conditions: in vivo
Mus musculus [5] = test: Downregulation of NLRP3 expression in colon of C57BL/6 mouse model of DSS-induced ulcerative colitis at 10 to 20 mg/kg, ig administered for 7 days by Western blot analysis; type: functional, organism-based; conditions: dose 10-20 mg/kg, time 7.0 day
[6] = Toxicity in C57BL/6 mouse assessed as effect on liver at 20 to 40 mg/kg, ig administered for 28 days; type: organism-based; conditions: in vivo, po, 672 h, dose 20-40 mg/kg, time 28 day
[7] = biological target: NACHT, LRR and PYD domains-containing protein 3 (Mus musculus) (UniProt Q8R4B8); test: Inhibition of NLRP3 inflammasome activation in LPS-stimulated mouse bone marrow-derived macrophages assessed as reduction in cleaved IL-1beta in supernatant at 2 uM preincubated for 30 mins followed by MSU addition and measured after 0.5 hrs by Western blot analysis; type: tissue-based; conditions: Macrophage, time 60.0 min
Target sequence in this assay (Q8R4B8 whole entry, the tested form may be a part): as above

[8] = biological target: NACHT, LRR and PYD domains-containing protein 3 (Mus musculus) (UniProt Q8R4B8); test: Inhibition of NLRP3 inflammasome activation in LPS-stimulated mouse bone marrow-derived macrophages assessed as reduction in caspase1 secretion at 1 to 4 uM preincubated for 30 mins followed by nigericin addition and measured after 0.5 hrs by Western blot analysis; type: tissue-based; conditions: Macrophage, dose 1-4 µM
Target sequence in this assay (Q8R4B8 whole entry, the tested form may be a part): as above

[9] = biological target: NACHT, LRR and PYD domains-containing protein 3 (Mus musculus) (UniProt Q8R4B8); test: Inhibition of NLRP3 inflammasome activation in LPS-stimulated mouse bone marrow-derived macrophages assessed as reduction in ILbeta secretion at 2 uM preincubated for 30 mins followed by nigericin addition and measured after 0.5 hrs by ELISA; type: tissue-based; conditions: Macrophage, time 60.0 min
Target sequence in this assay (Q8R4B8 whole entry, the tested form may be a part): as above

[10] = Toxicity in C57BL/6 mouse assessed as effect on kidney at 20 to 40 mg/kg, ig administered for 28 days; type: organism-based; conditions: in vivo, po, 672 h, dose 20-40 mg/kg, time 28 day
[11] = Half life in mouse liver microsomes preincubated for 5 mins followed by NADPH addition and measured after 5 to 60 mins by LC-MS/MS analysis; type: ADME, Microsome; conditions: time 5-60 min
[12] = biological target: NACHT, LRR and PYD domains-containing protein 3 (Mus musculus, UniProt Q8R4B8); test: Inhibition of NLRP3 inflammasome activation in LPS-stimulated mouse bone marrow-derived macrophages assessed as reduction in IL-1beta secretion preincubated for 30 mins followed by nigericin addition and measured after 30 mins by ELISA; type: tissue-based, Macrophage
[13] = biological target: NACHT, LRR and PYD domains-containing protein 3 (Mus musculus) (UniProt Q8R4B8); test: Inhibition of NLRP3 inflammasome activation in LPS-stimulated mouse bone marrow-derived macrophages assessed as reduction in ILbeta secretion at 2 uM preincubated for 30 mins followed by ATP addition and measured after 0.5 hrs by ELISA; type: tissue-based; conditions: Macrophage, time 60.0 min
Target sequence in this assay (Q8R4B8 whole entry, the tested form may be a part): as above

[14] = biological target: NACHT, LRR and PYD domains-containing protein 3 (Mus musculus) (UniProt Q8R4B8); test: Inhibition of NLRP3 inflammasome activation in LPS-stimulated mouse bone marrow-derived macrophages assessed as reduction in pro IL-1beta secretion in cell lysate at 2 uM preincubated for 30 mins followed by ATP addition and measured after 0.5 hrs by Western blot analysis; type: subcellular; conditions: Macrophage, time 60.0 min
Target sequence in this assay (Q8R4B8 whole entry, the tested form may be a part): as above

Mus musculus [15] = test: Downregulation of IL6 expression in colon of C57BL/6 mouse model of DSS-induced ulcerative colitis at 10 to 20 mg/kg, ig administered for 7 days by ELISA; type: functional, organism-based; conditions: dose 10-20 mg/kg, time 7.0 day
[16] = biological target: NACHT, LRR and PYD domains-containing protein 3 (Mus musculus) (UniProt Q8R4B8); test: Inhibition of NLRP3 inflammasome activation in LPS-stimulated mouse bone marrow-derived macrophages assessed as reduction in pro caspase1 secretion in cell lysate at 2 uM preincubated for 30 mins followed by nigericin addition and measured after 0.5 hrs by Western blot analysis; type: subcellular; conditions: Macrophage, time 60.0 min
Mus musculus [17] = test: Downregulation of phosphorylated p65 expression in colon of C57BL/6 mouse model of DSS-induced ulcerative colitis at 10 to 20 mg/kg, ig administered for 7 days by Western blot analysis; type: functional, organism-based; conditions: dose 10-20 mg/kg, time 7.0 day
[18] = Half life in mouse at 2 mg/kg, iv measured after 0.08 to 24 hrs by LC-MS/MS analysis; type: ADME, organism-based; conditions: in vivo, time 0.08-24 hrs
BMDM [19] = test: Effect on pro-caspase1 expression in LPS-stimulated mouse bone marrow-derived macrophages at 0.5 to 2 uM preincubated for 30 mins followed by nigericin addition and measured after 30 mins by Western blot analysis; type: functional, tissue-based; conditions: dose 0.5-2 µM, time 60.0 min
[20] = AUC (0 to infinity) in mouse at 20 mg/kg, po measured up to 24 hrs by LC-MS/MS analysis; type: ADME, organism-based; set-up: route oral, dose 20 mg/kg, time <=24; conditions: in vivo
[21] = biological target: NACHT, LRR and PYD domains-containing protein 3 (Mus musculus) (UniProt Q8R4B8); test: Inhibition of NLRP3 inflammasome activation in LPS-stimulated mouse bone marrow-derived macrophages assessed as reduction in cleaved IL-1beta secretion in supernatant at 2 uM preincubated for 30 mins followed by ATP addition and measured after 0.5 hrs by Western blot analysis; type: tissue-based; conditions: Macrophage, time 60.0 min
[22] = Toxicity in C57BL/6 mouse assessed as induction of convulsion at 20 to 40 mg/kg, ig administered for 28 days; type: organism-based; conditions: in vivo, po, 672 h, dose 20-40 mg/kg, time 28 day
BMDM [23] = test: Effect on ASC expression in LPS-stimulated mouse bone marrow-derived macrophages at 0.5 to 2 uM preincubated for 30 mins followed by nigericin addition and measured after 30 mins by Western blot analysis; type: functional, tissue-based; conditions: dose 0.5-2 µM, time 60.0 min
[24] = Cmax in mouse at 20 mg/kg, po measured up to 24 hrs by LC-MS/MS analysis; type: ADME, organism-based; set-up: route oral, dose 20 mg/kg, time <=24; conditions: in vivo
L02 = test: Cytotoxicity against human L-02 cells incubated for 24 hrs by MTT assay; type: cell-based; conditions: L02, 24 h
[25] = biological target: NACHT, LRR and PYD domains-containing protein 3 (Mus musculus) (UniProt Q8R4B8); test: Inhibition of NLRP3 inflammasome activation in LPS-stimulated mouse bone marrow-derived macrophages assessed as reduction in ASC polymerization at 1 to 4 uM preincubated for 30 mins followed by nigericin addition and measured after 0.5 hrs by DAPI staining based confocal scanning microscopy; conditions: Macrophage, dose 1-4 µM
Target sequence in this assay (Q8R4B8 whole entry, looked up, the tested form may be a part): as the sequence (Q8R4B8 whole entry, the tested form may be a part) above

[26] = biological target: NACHT, LRR and PYD domains-containing protein 3 (Mus musculus) (UniProt Q8R4B8); test: Inhibition of NLRP3 inflammasome activation in LPS-stimulated mouse J774A.1 cells assessed as inhibition of cell pyrolysis at 10 uM incubated for 1 hr followed by ATP addition and measured after 30 mins by Hoechst 33342/propidium iodide staining based high content screening method relative to control; conditions: J774.A1, time 1.5 hrs

Chain of NACHT, LRR and PYD domains-containing protein 3 (Q8R4B8 whole entry, the tested form may be a part): as above

## COc1cc(/C=C/c2ccc(NC(=O)C3CC3)cc2)c(/C=C/[N+](=O)[O-])c(OC)c1
[1]
  inhibition: Active
Mus musculus [2]
  Activity: Active
Mus musculus [3]
  Activity: Active
[4]
  AUC(0-inf): 583 ng·h/mL
Mus musculus [5]
  Activity: Active
[6]
  Activity: Non-Toxic
[7]
  inhibition: Active
[8]
  inhibition: Active
[9]
  inhibition: Active
[10]
  Activity: Non-Toxic
[11]
  half-life: 43.3 min
[12]
  IC50: 560 nM
[13]
  inhibition: Active
[14]
  inhibition: Active
Mus musculus [15]
  Activity: Active
[16]
  inhibition: Active
Mus musculus [17]
  Activity: Active
[18]
  half-life: 57.6 min
BMDM [19]
  Activity: inactive
[20]
  AUC: 845.93 ng·h/mL
[21]
  inhibition: Active
[22]
  Activity: Non-Toxic
BMDM [23]
  Activity: inactive
[24]
  Cmax: 95.1 ng/mL
L02
  IC50: > 100000 nM
[25]
  inhibition: Active
[26]
  inhibition: 73.1%
